Data set [1] deals with SHP-77 (CRL-2195, ATCC) MSS small cell lung carcinoma xenografts. The data set can be described thus: SHP-77 MSS SCLC xenograft efficacy in nude mice. The settings on record: irinotecan i.v. once a week. Format: in vivo. Here is the method:
SHP-77 (CRL-2195, ATCC) is a MSS small cell lung carcinoma (SCLC). It was cultured in RPMI 1640 Medium, GlutaMAX™ (#61870036, GIBCO) supplemented with 10% FCS (#2-O-1F30-I, BioConcept). Cells were passaged by washing first with Dulbecco's PBS without Ca^2+/Mg^2+ (#3-05F29-1, AMIMED), trypsinising cells with Trypsin 0.05% in PBS with EDTA (#5-51F00-H, AMIMED), centrifuging in the respective culture media, and splitting cells into fresh media at a ratio of 1:8, 2 times per week.
Athymic nude mice (Charles River, Germany) were allowed to adapt for 7 days upon arrival at the animal facility and housed in a pathogen-controlled environment (5 mice/Type III cage) with access to food and water ad libitum. Animals were identified with transponders. […]
(§1) Tumor volumes (TVol), determined from caliper measurements (using the formula I*w2*TT/6) were measured two times per week. Tumor response was quantified by the change in tumor volume (endpoint minus starting value in mm^3) as the T/C. In the case of a tumor regression or to assess the percentage of change in TVol, the tumor response was quantified by the percentage of regression of the starting TVol. The body-weight (BW) of the animal was measured three times per week allowing calculation at any particular time-point relative to the day of initiation of treatment (day 0) of the percentage change in BW (4% BW).

Data set [2] in a line: Body weight / tolerability in SHP-77 tumor-bearing nude mice. Format: in vivo. The settings on record: SHP-77 study; irinotecan 15 mg/kg; FIGS. 46 and 47. The method, then:
as §1

As for `CCc1c2c(nc3ccc(OC(=O)N4CCC(N5CCCCC5)CC4)cc13)-c1cc3c(c(=O)n1C2)COC(=O)[C@]3(O)CC` [irinotecan], the “effect on tumor growth of parental SHP77 tumors” value in data set [1] is listed as “no effect”. Further, the body weight change result in data set [2] is recorded as “slight body weight loss”.

The values above are taken from patent publication US20240197715A1, “PHARMACEUTICAL COMBINATIONS AND USES THEREOF” (NOVARTIS AG, priority 2022, published 2024).
